The text below walks through data of paper PMC11053631 (Pharmaceuticals, 2024).

A word on the solubility: it is how much of the substance goes into solution per volume.

On the set-up of series [1]: method as in U.S. Expert Review Board. To be noted: adults; ref U.S. Expert Review Board; cited from earlier work.
Series [2] can be described thus: Dynamic vapor sorption (DVS) hygroscopicity. It is filed as physicochemical. To be noted: 25 °C.
Method: The DVS profiles of different solid forms were tested on a SMS Intrinsic instrument, UK. To make sure each sample particle size was uniform, all samples were screened at 100 mesh (ΦA = 0.148 mm). Samples of 10–20 mg were used in the experiments. The DVS data were collected in an RH range of 0–95%. If the sample mass changes by less than 0.02% in 60 min, the next RH is conducted in a 5% step.
Series [3] is described as follows: Powder dissolution in SGF and SIF. It is filed as physicochemical. The settings on record: for solubility at 180 min: thermodynamic from solid, 50 rpm, read-out: maximum solubility. The procedure:
CUR-L-CN dissolves quickly and reaches its maximum concentration in 20 min. […] To understand this phenomenon, the residual powders after dissolution experiments were filtered and dried for PXRD analysis.
A mini bath dissolution device was used in the experiments, and a Julabo-5 heater was equipped for heating. The experiments were conducted at 37 °C with a rotational speed of 50 rpm. […] The dissolution rate experiments were measured in SGF and SIF containing 0.5% tween 80. SGF was prepared by diluting 16.4 mL of 10% HCl solution to 1000 mL with pure water. To prepare SIF, 6.8 g of KH2PO4 was dissolved in 500 mL of water; then, the pH was adjusted to 6.8 with NaOH solution with a concentration of 0.1 mol/L. At specified time points, i.e., 5 min, 10 min, 15 min, 20 min, 25 min, 30 min, 40 min, 50 min, 60 min, 90 min, 120 min, and 180 min, 0.5 mL of solution was withdrawn with a syringe. The collected solution was filtered through a 0.45 µm nylon filter and then subjected to HPLC determination. The dissolution studies of each solid form were conducted in triplicate (n = 3). After dissolution experiments, the residual samples were filtered and dried under vacuum for PXRD analysis.
The equipment has a diode array detector. An Agilent Zorbax Eclipse Plus C18 column was used in the experiments; it has a diameter of 4.6 mm, a length of 150 mm, and a filling aperture of 5 µm. The mobile phase contained 52% glacial acetic acid (4%) aqueous solution and 48% acetonitrile. The column temperature was set as 35 °C, and the UV-vis wavelength was set to 430 nm. A 10 µL sample was injected each time and the flow rate of the mobile phase was aet as 1 mL/min.

Series [4] is described as follows: Wettability test by film flotation. It counts as physicochemical. The procedure: To confirm the hypothesis given in the section discussing […] surface analysis, wettability tests using film flotation methods were conducted in SGF with/without surfactants. […] The wettability test was performed in pure SGF and SGF with 0.1% sodium dodecyl sulfonate (SDS) or tween 80 using film flotation methods.

The nature of series [5]: Oral pharmacokinetic study in rats. It is filed as in vivo. The settings on record: Sprague Dawley, rat, fasted male rats, oral 200 mg/kg in soybean oil, plasma treated with β-glucuronidase/sulfatase. The procedure:
The in vivo pharmacokinetic investigations of the CUR-L-CN co-crystal and the marketed CUR crystal were carried out in fasted male rats. In vivo, CUR is easily conjugated, and it can be conjugated with glucuronic acid and sulfate to form monoglucuronides, monosulfates, and mixed glucuronide/sulfates.
After administration, approximately 0.4 mL of blood was collected from the orbit of the rats into heparinized tubes at 20 min, 40 min, 1 h, 1.5 h, 2.5 h, 4 h, 6 h, and 8 h. Plasma samples (100 μL) were precisely aspirated and vortexed with 50 μL of β-glucuronidase and sulfatase buffer at 37 °C for 60 min. Plasma samples were protein precipitated by adding 0.45 mL of methanol (0.2% acetic acid). After 10 min of shaking, the samples were centrifuged at 14,000 rpm for 3 min. Subsequently, the supernatants were analyzed via HPLC/MS. All experimental procedures were approved by the Animal Ethics Committee.
HPLC methods and conditions were the same as 4.13. A 10 µL sample was injected each time, and the flow rate of the mobile phase was set as 0.6 mL/min.
The AUC0–t was calculated from plasma concentrations observed from 0 to 8 h using a linear trapezoidal approach.

For series [6] the following is noted: rats, intravenous and oral administration; cited from earlier work.

Molecules are shown by their SMILES. In brackets after ≈: the same amount, converted by molar mass. Like-named read-outs stand apart in the source and are kept apart here.

Regarding `C[N+](C)(C)C[C@H](O)CC(=O)[O-]` [L-CN, L-carnitine], the “dose rated as safe as nutritional supplement” value in series [1] was 20 mg/kg/day. The water uptake in series [2] (at 40% RH) is 39.9%. Besides, the “water uptake / water content” value in series [2] (at 95% RH) is listed as 174.2%. For the same compound, in series [2] (when RH decreases to 0%), the “water that cannot be removed” value came out at 23.6%.
Turning to `COc1cc(/C=C/C(=O)CC(=O)/C=C/c2ccc(O)c(OC)c2)ccc1O` [CUR, Curcumin], the mass change result in series [2] (during 0%-95% RH) is “nearly no mass change”. In series [3] (powder dissolution, 37 °C), the “time to reach maximum concentration in dissolution” value was “continues to increase over 180 min”. Moreover, the solubility at 180 min was 48.2 µg/mL (≈ 131 µM) in series [3] (simulated gastric fluid (SGF) with 0.5% tween 80, aqueous with cosolvent or surfactant or cyclodextrin, SGF containing 0.5% tween 80, 37 °C) and 24.5 µg/mL (≈ 66.5 µM) in series [3] (simulated intestinal fluid (SIF) with 0.5% tween 80, aqueous with cosolvent or surfactant or cyclodextrin, SIF pH 6.8 containing 0.5% tween 80, 37 °C). Further, the “wettability (powder sinking)” value in series [4] (SGF containing 0.1% SDS, after 10 min) is “only a small quantity of CUR had sunk”; in series [4] (SGF without surfactant), “could not sink into the fluid”. The Cmax in series [5] amounted to 67.9 ng/mL. The Tmax in series [5] was 1.5 h. Also, in series [5] (0 to 8 h, read-out: AUC0–8), the AUC(0-t) was determined as 110 ng·h/mL. In addition, in series [6], the oral bioavailability result was “about 1%”.
